Experimental data: patent US11883441B2, “Compositions and methods for inhibiting seizures” (The Regents of the University of California, priority 2016, dated 2024)

Experiments:
Swiss Webster mice = experiment: 6-Hz psychomotor seizure assay; format: in vivo, mouse
Experimental: All subsequent experimental cohorts contained male mice. One drop (˜50 ul) of 0.5% tetracaine hydrochloride ophthalmic solution was applied to the corneas of each mouse 10-15 min before stimulation. Corneal electrodes were coated with a thin layer of electrode gel (Parker Signagel). A constant-current current device (ECT Unit 57800, Ugo Basile) was used to deliver current at 3 sec duration, 0.2 ms pulse-width and 6 pulses/s frequency. CC50 (the intensity of current required to elicit seizures in 50% of the experimental group) was measured as a metric for seizure susceptibility. […] Each mouse was seizure-tested only once, and thus at least n>6 mice were used to adequately power each experiment group. To determine CC50s for each experimental group, 24 mA currents were administered to the first mouse per experimental group per cohort, followed by fixed increases or decreases by 2 mA intervals. […] Locomotor behavior was recorded using Ethovision XT software (Noldus) and quantitative measures for falling, tail dorsiflexion (Straub tail), forelimb clonus, eye/vibrissae twitching and behavioral remission were scored manually. […] Latency to exploration (time elapsed from when an experimental mouse is released into the observation cage (after corneal stimulation) to its first lateral movement) was scored using Ethovision and manually with an electronic timer. […]

Kcna1−/− mice = experiment: Kcna1 seizure recordings (EEG); format: in vivo, mouse; conditions: CD-fed SPF Kcna1−/− mice; 13.3 mg/kg oral gavage every 12 hours
Experimental: EEG Implantation and Recovery. EEGs were recorded from male and female Kcna1^−/− mice at 6-7 weeks of age. Kcna1^+/+ littermates were used as controls. […] Data presented include both sexes. Mice were anesthetized with isoflurane (5% induction, 2% maintenance) and eye ointment applied to each eye. Fur was removed along the head, and the area was cleaned with three alternative scrubs of chlorohexidine and 70% isopropanol. In a biosafety cabinet, mice were positioned in a stereotaxic apparatus (Harvard Biosciences) and 1 mg/kg lidocaine+1 mg/kg bupivacaine was applied locally along the incision site. […]
During EEG recordings animals were freely moving and maintained on experimental diet. […] Simultaneous video recordings of behavioral seizures were correlated with EEG recordings and scored based on an adapted Racine scale and defined by 5 stages: 1) myoclonic jerk, 2) head stereotypy and facial clonus, 3) bilateral and alternating forelimb/hindlimb clonus, 4) rearing and falling, and 5) generalized tonic-clonic episodes. Data were analyzed by a blinded researcher using Neuroscore CNS Software (DSI). EEG signals were filtered using a 10 Hz high pass filter, and seizure events were detected by blinded manual scoring. […]
For wild type mice: 4-week old SPF Swiss Webster mice were fed CD ad libitum for 14 days. […] Seizures were recorded over 3 days by EEG beginning 2 hours after the final gavage. […]

P. merdae = experiment: Cross-feeding in vitro assay, P. merdae growth and viability; format: cell-based; conditions: pre-treatment 500 uM, 2 hours, pilot experiments
Experimental: (§1) Cross-feeding was measured as previously described. A. muciniphila was embedded at 2×10^6 cfu/ml in 5 ml pre-reduced CD or KD-based liquid media supplemented with 1% agar at the bottom of an anaerobic tube, and P. merdae was overlaid above it at 6×10^6 cfu/ml in 5 ml pre-reduced M9 minimal media. Diet-based media were generated by aseptically suspending mouse KD vs. CD diets, described above, to 2 kcal/ml in M9 media. Pilot experiments confirmed no ectopic translocation of embedded A. muciniphila from the agar compartment into the above M9 liquid compartment. For each time point, aliquots were taken from the top and bottom compartments, plated in a dilution series in rich media (RCM for P. merdae and BHI+0.05% mucins for A. muciniphila), and colonies were counted. For GGsTop pre-treatment experiments, P. merdae was incubated with 500 uM GGsTop vs vehicle in RCM media at 37° C. for 2 hours and then washed with sterile media.

A. muciniphila = experiment: Cross-feeding in vitro assay, A. muciniphila growth; format: cell-based, Akkermansia muciniphila; conditions: exposed to P. merdae pre-treated with 500 uM for 2 hours; 24 hours after incubation; vs vehicle-treated P. merdae
Experimental: as §1

[1] = system: gamma-glutamyltranspeptidase (GGT); experiment: GGT activity assay in fecal samples; format: biochemical; conditions: fecal samples exposed in vitro, 500 uM
Experimental: GGT activity was measured as previously described in van der Stel, Frontiers in Microbiology (6), 567 (2015). For anaerobic cultures, bacteria were seeded at 3×10^5 cfu/ml in CD- and KD-based media. 1 ml bacterial suspension was pelleted and frozen at −80° C. for 1 hr. Separate aliquots of the same suspension were plated in BHI mucin agar media or RCM and incubated at 37° C. in a Coy anaerobic chamber for later data normalization by bacterial cfu. Pellets were then resuspended in 250 ul lysis buffer (50 mM Tris-HCl with 1 ug/ml lysozyme) and incubated on ice for 30 min. For fecal samples, one pellet was weighed and homogenized in 1 ml lysis buffer. Bacterial and fecal suspensions were then sonicated (QSonica 125) and centrifuged at 12000×g for 10 min at 4° C. […] Absorbance at 405 nm denoting production of 3-carboxy-4-nitroaniline was measured every minute for 1 hr at 37° C. using an automated multimode plate reader (Biotek Synergy H1).
To gain insight into whether the KD and interactions between A. muciniphila and Parabacteroides spp. suppressed bacterial gamma-glutamylation in vivo, GGT activity was measured in fecal samples collected from SPF or A. muciniphila and Parabacteroides spp.-enriched mice fed the CD or KD.

Compound | Protection against 6-Hz seizures / seizure threshold (Swiss Webster mice; Abx-treated SPF mice gavaged with 10^9 cfu bacteria, fed KD, tested at 14 days) | Seizures per day (Kcna1−/− mice) | P. merdae viability (P. merdae) | A. muciniphila growth (A. muciniphila) | Seizure threshold (Swiss Webster mice; SPF CD mice gavaged for 3 days, 13.3 mg/kg every 12 hours) | GGT activity signal of fecal samples [1]
Bifidobacterium longum | no effect |  |  |  |  | 
COP(=O)(CCC(N)C(=O)O)Oc1cccc(CC(=O)O)c1 (stereo not drawn) [GGsTop, 3-[[(3-amino-3-carboxypropyl)methoxyphosphinyl]oxy]benzeneacetic acid] |  | significant decrease in seizures per day | no significant effect | increased growth | increases in seizure thresholds | eliminated the detected signals
